Measured values taken from patent publication US20240308990A1, “CRYSTAL FORM OF ENTRECTINIB AND PREPARATION METHOD THEREFOR” (QILU PHARMACEUTICAL CO., LTD., priority 2021, published 2024).
Converted amounts (≈) assume the structure as drawn. Read-outs that look alike come from different tables or passages of the source.

What was measured:
[1] = Crystal form stability test (affecting factors); type: physicochemical; conditions: for Crystal form stability (in words): after a 10-day affecting factor test
Protocol: The experimental method was as follows: a ground sample (100 mg) was filled in a groove of a glass plate, the plane of the sample was made to the same level as the glass surface by using a glass slide, the sample was placed in a PANalytical X-ray powder diffractometer, and a 40 kV and 40 mA copper X-ray source was used, with a scanning range of 3-45° (2θ) and a scanning rate of 8°/min. The scanning error is typically ±0.2 degrees (2θ).

[2] = Chemical stability test (affecting factors, HPLC purity); type: physicochemical; conditions: for Chemical stability (in words): after a 10-day affecting factor test
Excerpt: For the specific method for testing the stability, reference could be made to high performance liquid chromatography in General Chapter 0512, Chinese Pharmacopoeia, Volume IV, 2015 Edition.

[3] = Solubility comparison of crystals; type: physicochemical; conditions: for Solubility in 95% ethanol / Solubility in aqueous solution with pH = 1 / solubility at 20 min: 25° C., dissolution time 20 min; for Solubility compared with crystal form 2 and crystal form 4: 95% ethanol and aqueous solution with pH=1; for solubility at 20 min: thermodynamic from solid
Protocol: • Dissolution temperature: 25° C. • Dissolution time: 20 min

[4] = Preparation stability of crystal forms (mixing and slurrying, X-RPD); type: physicochemical; conditions: for Converted crystal form: 0.1 g mixed with 0.1 g crystal form A of Example 2, slurried in acetone/water at room temperature for 10 h
Protocol: The mixing and slurring method was as follows: 0.1 g of each of the two crystal forms to be mixed was weighed and added into a single-necked flask. 2 mL of acetone and 1 mL of water were added. The mixture was stirred and slurried at room temperature for 10 h, filtered, and dried in air at room temperature to obtain crystals. The crystal forms were determined by X-RPD.

[5] = Crystal microscopic morphology by scanning electron microscope; type: physicochemical
Excerpt: The experimental method was as follows: an appropriate amount of test sample was taken, uniformly spread on a conductive adhesive tape, sprayed with gold, and observed under an electron microscope.
(§1) The determination results are as follows.

[6] = Crushing, static electricity and fluidity test; type: physicochemical; conditions: for Static electricity: reference forms: after crushing
Excerpt: as §1

[7] = background statement; cited from earlier work
[8] = High humidity condition 90% RH, 10 days
[9] = High temperature condition 60° C., 10 days
[10] = Light condition 5000 lux/h, 10 days

Compound	Crystal form found ([1]; 0 day)	Crystal form found [1, 8]	Crystal form found [1, 9]	Crystal form found [1, 10]	Purity (%) ([2]; 0 day)	Purity (%) [2, 8] [%]	Purity (%) [2, 9] [%]	Purity (%) [2, 10] [%]	Solubility in 95% ethanol [3] [mg/mL]	Solubility in aqueous solution with pH = 1 [3] [mg/mL]	Converted crystal form [4]	electron microscopy results of the crystal: length of larger crystals/particles [5]	electron microscopy results of the crystal: shape and size uniformity [5]	Fluidity [6]	Static electricity [6]	also measured
CN1CCN(c2ccc(C(=O)Nc3n[nH]c4ccc(Cc5cc(F)cc(F)c5)cc34)c(NC3CCOCC3)c2)CC1 [Crystal form 4 of Reference Example 3, entrectinib]	form 4	form 4	form 4	form 4	99.29	99.29	99.28	99.28	20.5 (≈ 36.6 mM)	18.8	Crystal form A	–	–	–	–	–
CN1CCN(c2ccc(C(=O)Nc3n[nH]c4ccc(Cc5cc(F)cc(F)c5)cc34)c(NC3CCOCC3)c2)CC1 [Crystal form B of Example 5, N-[5-(3,5-difluorobenzyl)-1H-indazol-3-yl]-4-(4-methylpiperazin-1-yl)-2-[(tetrahydro-2H-pyran-4-yl)amino]benzamide]	form B	form B	form B	form B	99.91	99.90	99.91	99.91	26.2 (≈ 46.7 mM)	21.0	–	~10 μm	Rod-shaped, relatively uniform size,	good fluidity	–	Crystal form stability (in words) [1]: good crystal form stability; Chemical stability (in words) [2]: good chemical stability; Solubility compared with crystal form 2 and crystal form 4 [3]: better solubility; Fluidity ([6]; listed as crystal form B): good fluidity
CN1CCN(c2ccc(C(=O)Nc3n[nH]c4ccc(Cc5cc(F)cc(F)c5)cc34)c(NC3CCOCC3)c2)CC1 [Crystal form A of Example 2, N-[5-(3,5-difluorobenzyl)-1H-indazol-3-yl]-4-(4-methylpiperazin-1-yl)-2-[(tetrahydro-2H-pyran-4-yl)amino]benzamide]	form A	form A	form A	form A	99.92	99.92	99.91	99.91	–	–	–	~20 μm	Rod-shaped, relatively uniform size,	good fluidity	–	Crystal form stability (in words) [1]: good crystal form stability; Chemical stability (in words) [2]: good chemical stability; Solubility compared with crystal form 2 and crystal form 4 [3]: better solubility; solubility at 20 min ([3]; 95% ethanol, 25 °C, organic solvent or mixture, read-out: Solubility in 95% ethanol): 28.4 mg/mL (≈ 50.7 mM); solubility at 20 min ([3]; aqueous solution with pH 1, 25 °C, pH 1, simulated gastric fluid, read-out: Solubility in aqueous solution with pH = 1): 22.6 mg/mL (≈ 40.3 mM); Fluidity ([6]; listed as crystal form A): good fluidity; Crystal conversion in acetone/water slurry (in words) ([4]; acetone/water system, room temperature, 10 h): will not be subjected to crystal conversion
CN1CCN(c2ccc(C(=O)Nc3n[nH]c4ccc(Cc5cc(F)cc(F)c5)cc34)c(NC3CCOCC3)c2)CC1 [Crystal form AZT-A of Reference Example 4] [entrectinib]	–	–	–	–	–	–	–	–	–	–	Crystal form A	about 700 μm	Irregular bulk-shaped, non-uniform	poor fluidity	strong static electricity after crushing, and	Fluidity ([6]; listed as crystal form AZT-A): poor fluidity; Static electricity ([6]; listed as crystal form AZT-A): relatively strong static electricity after being crushed
CN1CCN(c2ccc(C(=O)Nc3n[nH]c4ccc(Cc5cc(F)cc(F)c5)cc34)c(NC3CCOCC3)c2)CC1 [Crystal form 2 of Reference Example 2, entrectinib]	form 2	form 2	form 2	form 2	99.34	99.33	99.34	99.33	21.1 (≈ 37.6 mM)	19.1	Crystal form A	about 85 μm	Sheet-shaped, fragile, non-uniform	crushing, and poor fluidity	relatively strong static electricity after	Solubility (in words) [7]: poor solubility; Fluidity ([6]; listed as crystal form 2): poor fluidity; Static electricity ([6]; listed as crystal form 2): relatively strong static electricity after being crushed
CN1CCN(c2ccc(C(=O)Nc3n[nH]c4ccc(Cc5cc(F)cc(F)c5)cc34)c(NC3CCOCC3)c2)CC1 [Crystal form AZT-E of Reference Example 6] [entrectinib]	–	–	–	–	–	–	–	–	–	–	Crystal form A	more than about 1000 μm	Irregular bulk-shaped, non-uniform	poor fluidity	strong static electricity after crushing, and	Fluidity ([6]; listed as crystal form AZT-E): poor fluidity; Static electricity ([6]; listed as crystal form AZT-E): relatively strong static electricity after being crushed
CN1CCN(c2ccc(C(=O)Nc3n[nH]c4ccc(Cc5cc(F)cc(F)c5)cc34)c(NC3CCOCC3)c2)CC1 [Crystal form AZT-B of Reference Example 5] [entrectinib]	–	–	–	–	–	–	–	–	–	–	Crystal form A	more than about 1000 μm	Irregular bulk-shaped, non-uniform	poor fluidity	strong static electricity after crushing, and	Fluidity ([6]; listed as crystal form AZT-B): poor fluidity; Static electricity ([6]; listed as crystal form AZT-B): relatively strong static electricity after being crushed
CN1CCN(c2ccc(C(=O)Nc3n[nH]c4ccc(Cc5cc(F)cc(F)c5)cc34)c(NC3CCOCC3)c2)CC1 [Crystal form 1 of Reference Example 1, entrectinib]	form 1	form 1	form 2	form 1	99.21	99.20	99.20	99.19	–	–	–	–	–	–	–	Crystal form stability (in words) ([1]; listed as crystal form 1 in Reference Example 1): unstable and shows crystal form conversion under a high temperature condition; Crystal form stability (in words) [7]: unstable and is easy to be converted into another crystal form
